Legend:
[1] = Storage stability of PEP005 preparations; assay type: physicochemical; conditions: stored at 4° C.
Procedure: PEP005 was supplied by Peplin Limited, Brisbane, Australia, in 20 mg batches and stored at 4° C. When required, the PEP005 was solubilized in dimethyl sulphoxide (DMSO, >99.9%, Sigma Chemical Co., Dorset, U.K.), at a concentration of 10 mg/ml.
PEP005 was supplied by Peplin Limited, Brisbane, Australia as 0.01% (100 μg/ml), 0.028% (280 μg/ml) and 0.05% (500 μg/ml) preparations in a DMSO/isopropanol-based gel. PEP005-free, DMSO/isopropanol-based carrier gel was also supplied to serve as a vehicle control.

Me10538 cells = assay: Cytokine production by PEP005-treated human melanoma cells; assay type: cell-based; conditions: 6 h, supernatant
Procedure: Cytokine production by PEP005-treated human cells Confluent cultures of Me10538 cells, keratinocytes, fibroblasts and neutrophils were incubated for 6 h in the absence or presence of PEP005 (1-100 ng/ml). The supernatants were harvested and analyzed for the presence of the following cytokines; TNF-α, IL-6 and IL-8 using a multiplex detection kit (Biosource International, Nivelles, Belgium). Units of detected proteins are pg/ml.

epidermal keratinocytes = assay: MTT cell viability and proliferation, epidermal keratinocytes; assay type: cell-based, human; conditions: 100 μg/ml PEP005
Procedure: Human, adult, epidermal keratinocytes, were purchased cryopreserved from Cascade Biologics Inc., Nottinghamshire, U.K. These cells (>500,000 viable cells/vial) were tested to be >70% viable, with the capacity to proliferate for at least 16 population doublings. The epidermal keratinocytes were cultured in serum-free, EpiLife® Medium (Cascade Biologics Inc.), supplemented with antibiotics (100 U/ml penicillin G sodium, […] streptomycin sulphate and 0.25 μg/ml amphotericin B) and EpiLife® Defined Growth Supplement (EDGS, consisting of purified bovine serum albumin, purified bovine transferring, hydrocortisone, recombinant human insulin-like growth factor type-1, prostaglandin E2 and recombinant human epidermal growth factor, Cascade Biologics Inc.). Epidermal keratinocytes cultures were maintained at 37° C., in a 5% CO2/95% air atmosphere, with the culture medium being changed every 2-3 days. Epidermal keratinocytes were used between 4-6 passages, for all experiments.
Prior to use, the PEP005/DMSO stock solution was removed from 4° C. storage and warmed to room temperature. […]

In the case of `C/C=C(/C)C(=O)O[C@H]1C(C)=C[C@]23C(=O)[C@@H](C=C(CO)[C@@H](O)[C@]12O)[C@H]1[C@@H](C[C@H]3C)C1(C)C` [PEP005, ingenol-3-angelate], the “stability of PEP005 gels” value ([1]; 0.01%, 0.028% and 0.05% preparations in DMSO/isopropanol-based gel) is reported as “stable for several months”, the “stability of PEP005/DMSO stock solution” value ([1]; 10 mg/ml in DMSO) is reported as “stable for several months” and the IL-8 (Me10538 cells; PEP005 1 ng/ml) is reported as <2 pg/mL. For the same compound, the IL-8 (Me10538 cells; PEP005 5 ng/ml) was 210 ± 6 pg/mL, the IL-8 (Me10538 cells; PEP005 10 ng/ml) was 737 ± 26 pg/mL and the IL-8 (Me10538 cells; PEP005 100 ng/ml) was 390 ± 18 pg/mL. The “keratinocyte cell viability/proliferation (MTT)” value (epidermal keratinocytes) was “cytotoxic effect”.
